# Results from patent US4582639A, “Antitumor antibiotic compound” (priority 1984, dated 1986).
# Bridge positions count the residues as written; N and C are the ends. Square brackets hold non-standard residues; d marks the D form. Peptide text beside a SMILES is read from it. I, II: the chains in the order shown. * marks the point of attachment. Quinaldoyl(3-OH) = O=C(c1nc2ccccc2cc1O)*; NMeV = CN[CH](C(=O)O)C(C)C; Pip = O=C(O)[CH]1CCCCN1; Sar = CNCC(=O)O
# Assays:
# [1] = tested on: S. aureus (echinomycin resistant) A9628; experiment: microbe, parasite or virus in culture; type: cell-based; details: Staphylococcus aureus, read-out: Minimum Inhibitory Concentration (MIC)
# Procedure: The antibacterial activities of sandramycin were determined by a serial two-fold agar dilution method.
# [2] = tested on: B. subtilis (Rec. +) A22508-2; experiment: serial two-fold agar dilution, MIC; type: cell-based; details: Bacillus subtilis; B. subtilis (Rec. +) A22508-2, agar dilution; read-out: Minimum Inhibitory Concentration (MIC)
# Procedure: (§1) The antibacterial activities of sandramycin were determined by a serial two-fold agar dilution method. The results are shown in Table 5 in comparison with the activities of luzopeptin A and echinomycin.
# [3] = tested on: E. coli A15119; experiment: serial two-fold agar dilution, MIC; type: cell-based; details: Escherichia coli, read-out: Minimum Inhibitory Concentration (MIC)
# Procedure: as §1
# [4] = tested on: B. subtilis (Rec. -) A22509-2-2; experiment: serial two-fold agar dilution, MIC; type: cell-based; details: Bacillus subtilis; B. subtilis (Rec. -) A22509-2-2, agar dilution; read-out: Minimum Inhibitory Concentration (MIC)
# Procedure: as §1
# [5] = tested on: E. coli (actinomycin sensitive) A21780 (AS-19); experiment: serial two-fold agar dilution, MIC; type: cell-based; details: Escherichia coli, read-out: Minimum Inhibitory Concentration (MIC)
# Procedure: as §1
# [6] = tested on: Strep. faecalis A9611; experiment: serial two-fold agar dilution, MIC; type: cell-based, Streptococcus faecalis; details: Enterococcus faecalis, read-out: Minimum Inhibitory Concentration (MIC)
# Procedure: as §1
# [7] = tested on: P-388 leukemia; experiment: transplantable mouse tumor P-388 leukemia; type: in vivo, mouse (CDF1 female mice)
# Procedure: The methodology used generally followed the protocols of the National Cancer Institute [Cancer Chemotherapy Rep. Part 3, 3, 1-103 (1972)]. The essential experimental details are given at the bottom of Table 6. Two different dose regimens were tested: single dose on day 1 and daily for 5 days. With both schedules, the optimum dose appears to be about 0.2 mg/kg/injection.
# Tumor inoculum: 10^6 ascites cells implanted i.p.
# Evaluation: MST=median survival time
# Effect: % T/C≥(MST treated/MST control)×100
# Criteria: % T/C=125 considered significant antitumor activity
# AWC: average weight change (treated-control) in grams (on day 4)
# [8] = tested on: gram-positive organisms such as Bacillus subtilis and Staphylococcus aureus as well as Streptococcus faecalis; experiment: serial two-fold agar dilution, antibacterial activity in words; type: cell-based
# Procedure: as §1
structure (smiles),measurement,setting,value
CS[C@H]1SC[C@H]2C(=O)N(C)[C@@H](C(C)C)C(=O)OC[C@@H](NC(=O)c3cnc4ccccc4n3)C(=O)N[C@@H](C)C(=O)N(C)[C@@H]1C(=O)N(C)[C@@H](C(C)C)C(=O)OC[C@@H](NC(=O)c1cnc3ccccc3n1)C(=O)N[C@@H](C)C(=O)N2C [Echinomycin],MIC,[1],0.78 µg/mL
same,MIC,[2],0.049 µg/mL
same,MIC,[3],12.5 µg/mL
same,MIC,[4],< 0.003 µg/mL
same,MIC,[5],6.25 µg/mL
same,MIC,[6],0.012 µg/mL
"CC(C)C1C(=O)OCC(NC(=O)c2nc3ccccc3cc2O)C(=O)N2CCCCC2C(=O)NCC(=O)N(C)CC(=O)N(C)C(C(C)C)C(=O)OCC(NC(=O)c2nc3ccccc3cc2O)C(=O)N2CCCCC2C(=O)NCC(=O)N(C)CC(=O)N1C (centres unmarked) [Sandramycin] (I: {Quinaldoyl(3-OH)}-S[Pip]G[Sar][NMeV] / II: {Quinaldoyl(3-OH)}-S[Pip]G[Sar][NMeV]; ester I:1-II:C, I:C-II:1; configuration not given here)",optimum dose,"[7]; IP, both schedules (single dose on day 1 and daily for 5 days)",about 0.2 mg/kg/injection
same,AWC Day 4,"[7]; d. 1, IP, 0.025 mg/kg/inj.",-0.2 gm
same,MST,"[7]; d. 1, IP, 0.025 mg/kg/inj.",9.5 days
same,MST % T/C,"[7]; d. 1, IP, 0.025 mg/kg/inj.",106%
same,Survivors Day 5,"[7]; d. 1, IP, 0.025 mg/kg/inj.",6/6
same,AWC Day 4,"[7]; d. 1, IP, 0.05 mg/kg/inj.",-0.6 gm
same,MST,"[7]; d. 1, IP, 0.05 mg/kg/inj.",10.0 days
same,MST % T/C,"[7]; d. 1, IP, 0.05 mg/kg/inj.",111%
same,Survivors Day 5,"[7]; d. 1, IP, 0.05 mg/kg/inj.",6/6
same,AWC Day 4,"[7]; d. 1, IP, 0.1 mg/kg/inj.",-0.9 gm
same,MST,"[7]; d. 1, IP, 0.1 mg/kg/inj.",11.0 days
same,MST % T/C,"[7]; d. 1, IP, 0.1 mg/kg/inj.",122%
same,Survivors Day 5,"[7]; d. 1, IP, 0.1 mg/kg/inj.",6/6
same,AWC Day 4,"[7]; d. 1, IP, 0.2 mg/kg/inj.",-1.4 gm
same,MST,"[7]; d. 1, IP, 0.2 mg/kg/inj.",14.5 days
same,MST % T/C,"[7]; d. 1, IP, 0.2 mg/kg/inj.",161%
same,Survivors Day 5,"[7]; d. 1, IP, 0.2 mg/kg/inj.",6/6
same,AWC Day 4,"[7]; d. 1, IP, 0.4 mg/kg/inj.",-0.7 gm
same,MST,"[7]; d. 1, IP, 0.4 mg/kg/inj.",11.0 days
same,MST % T/C,"[7]; d. 1, IP, 0.4 mg/kg/inj.",122%
same,Survivors Day 5,"[7]; d. 1, IP, 0.4 mg/kg/inj.",6/6
same,AWC Day 4,"[7]; d. 1, IP, 0.8 mg/kg/inj.",-1.6 gm
same,MST,"[7]; d. 1, IP, 0.8 mg/kg/inj.",10.0 days
same,MST % T/C,"[7]; d. 1, IP, 0.8 mg/kg/inj.",111%
same,Survivors Day 5,"[7]; d. 1, IP, 0.8 mg/kg/inj.",6/6
same,AWC Day 4,"[7]; d. 1, IP, 1.6 mg/kg/inj.",-1.3 gm
same,MST,"[7]; d. 1, IP, 1.6 mg/kg/inj.",11.5 days
same,MST % T/C,"[7]; d. 1, IP, 1.6 mg/kg/inj.",128%
same,Survivors Day 5,"[7]; d. 1, IP, 1.6 mg/kg/inj.",6/6
same,AWC Day 4,"[7]; d. 1, IP, 3.2 mg/kg/inj.",-2.8 gm
same,MST,"[7]; d. 1, IP, 3.2 mg/kg/inj.",Toxic
same,MST % T/C,"[7]; d. 1, IP, 3.2 mg/kg/inj.",Toxic
same,Survivors Day 5,"[7]; d. 1, IP, 3.2 mg/kg/inj.",0/6
same,AWC Day 4,"[7]; d. 1→5, IP, 0.0125 mg/kg/inj.",-0.9 gm
same,MST,"[7]; d. 1→5, IP, 0.0125 mg/kg/inj.",10.5 days
same,MST % T/C,"[7]; d. 1→5, IP, 0.0125 mg/kg/inj.",117%
same,AWC Day 4,"[7]; d. 1→5, IP, 0.025 mg/kg/inj.",-1.4 gm
same,MST,"[7]; d. 1→5, IP, 0.025 mg/kg/inj.",10.0 days
same,MST % T/C,"[7]; d. 1→5, IP, 0.025 mg/kg/inj.",111%
same,Survivors Day 5,"[7]; d. 1→5, IP, 0.025 mg/kg/inj.",5/5
same,AWC Day 4,"[7]; d. 1→5, IP, 0.05 mg/kg/inj.",-1.8 gm
same,MST,"[7]; d. 1→5, IP, 0.05 mg/kg/inj.",8.5 days
same,MST % T/C,"[7]; d. 1→5, IP, 0.05 mg/kg/inj.",94%
same,Survivors Day 5,"[7]; d. 1→5, IP, 0.05 mg/kg/inj.",6/6
same,AWC Day 4,"[7]; d. 1→5, IP, 0.1 mg/kg/inj.",-0.8 gm
same,MST,"[7]; d. 1→5, IP, 0.1 mg/kg/inj.",11.5 days
same,MST % T/C,"[7]; d. 1→5, IP, 0.1 mg/kg/inj.",128%
same,Survivors Day 5,"[7]; d. 1→5, IP, 0.1 mg/kg/inj.",6/6
same,AWC Day 4,"[7]; d. 1→5, IP, 0.2 mg/kg/inj.",-1.7 gm
same,MST,"[7]; d. 1→5, IP, 0.2 mg/kg/inj.",12.0 days
same,MST % T/C,"[7]; d. 1→5, IP, 0.2 mg/kg/inj.",133%
same,Survivors Day 5,"[7]; d. 1→5, IP, 0.2 mg/kg/inj.",5/6
same,AWC Day 4,"[7]; d. 1→5, IP, 0.4 mg/kg/inj.",-1.3 gm
same,MST,"[7]; d. 1→5, IP, 0.4 mg/kg/inj.",11.0 days
same,MST % T/C,"[7]; d. 1→5, IP, 0.4 mg/kg/inj.",122%
same,Survivors Day 5,"[7]; d. 1→5, IP, 0.4 mg/kg/inj.",6/6
same,AWC Day 4,"[7]; d. 1→5, IP, 0.8 mg/kg/inj.",-1.4 gm
same,MST,"[7]; d. 1→5, IP, 0.8 mg/kg/inj.",6.0 days
same,MST % T/C,"[7]; d. 1→5, IP, 0.8 mg/kg/inj.",67%
same,Survivors Day 5,"[7]; d. 1→5, IP, 0.8 mg/kg/inj.",5/6
same,AWC Day 4,"[7]; d. 1→5, IP, 1.6 mg/kg/inj.",-1.7 gm
same,MST,"[7]; d. 1→5, IP, 1.6 mg/kg/inj.",Toxic
same,MST % T/C,"[7]; d. 1→5, IP, 1.6 mg/kg/inj.",Toxic
same,Survivors Day 5,"[7]; d. 1→5, IP, 1.6 mg/kg/inj.",2/6
same,MIC,[1],0.098 µg/mL
same,MIC,[2],0.024 µg/mL
same,MIC,[3],12.5 µg/mL
same,MIC,[4],0.012 µg/mL
same,MIC,[5],12.5 µg/mL
same,MIC,[6],0.024 µg/mL
same,antibacterial activity,[8],strongly inhibitory
COc1ccc2nc(C(=O)N[C@@H]3COC(=O)[C@H](C(C)(C)O)N(C)C(=O)CN(C)C(=O)CNC(=O)C4C(OC(C)=O)CC=NN4C(=O)[C@H](NC(=O)c4nc5ccc(OC)cc5cc4O)COC(=O)[C@H](C(C)(C)O)N(C)C(=O)CN(C)C(=O)CNC(=O)C4C(OC(C)=O)CC=NN4C3=O)c(O)cc2c1 (some centres unmarked) [Luzopeptin A],MIC,[1],0.098 µg/mL
same,MIC,[2],0.195 µg/mL
same,MIC,[3],12.5 µg/mL
same,MIC,[4],0.049 µg/mL
same,MIC,[5],12.5 µg/mL
same,MIC,[6],0.195 µg/mL
